According to patent US20250049810A1, “METHODS OF TREATING A RAS PROTEIN-RELATED DISEASE OR DISORDER” (Revolution Medicines, Inc., priority 2023, published 2025):
Like-named read-outs stand apart in the source and are kept apart here.

Columns and labels:
[1] = Phase 1/1b study: safety, treatment-related adverse events; type: in vivo, human
Description: (§1) This Example describes the study design of a Phase 1/1b study of Compound A in patients with advanced KRAS^G12C solid tumors with the first patient dosed in September 2022. There are two components in this study: Part 1—Dose Escalation and Part 2—Dose Expansion (FIG. 1). In Part 1—Dose Escalation, an assessment of safety and tolerability are conducted, and the candidate recommended Phase 2 dose and schedule (RP2DS) are determined for further testing in the Dose Expansion Part. Part 2 of the study evaluates the safety and antitumor effects of the candidate RP2DS in KRAS^G12C-mutant solid tumors.
Safety assessments and procedures were performed. Real-time safety monitoring is performed to ensure that the protocol-specified dose modification guidelines are followed. In addition, C1 safety and available PK and pharmacodynamic data reviewed and evaluated at each Compound A dose level/schedule to determine whether enrollment into the next higher dose-level cohort could proceed. A modified schedule evaluated in which Compound A may be administered more or less frequently than once daily (QD). The totality of the data from dose escalation cohorts is reviewed and one or more candidate RP2DS for expansion in Part 2 can be recommended.
(§2) Patients with previously treated, advanced […] solid tumors received escalating doses of Compound A. Doses included 50 mg, 100 mg, and 200 mg once daily (QD) and 100 mg, 200 mg, 300 mg, and 400 mg twice daily (BID). Each cycle had 21 days, with efficacy assessed every 6 weeks. Additional patients were enrolled to backfill cohorts at dose levels that cleared dose-limiting toxicity evaluation to further characterize PK, safety, and anti-tumor activity of Compound A as described in Example 1.

[2] = system: human cancer cell lines harboring the KRAS^G12C mutation; test: Growth suppression and apoptosis in KRAS G12C cancer cell lines; type: cell-based; conditions: multiple human cancer cell lines harboring KRAS^G12C
KRAS^G12C NSCLC = test: Phase 1/1b study: tumor response per RECIST 1.1 in KRAS G12C NSCLC; type: in vivo, human; conditions: for patients who responded (response rate): all doses
Description: as §1
(§3) Subjects are assessed for response using Response Evaluation Criteria in Solid Tumors (version 1.1) (RECIST [v1.1]). All subjects with previous or current, known or suspected brain metastases must have a magnetic resonance imaging (MRI) of the brain (unless contraindicated) performed within 28 days prior to the first dose of Compound A (C1D1). Disease response for clinical management of subjects were assessed per RECIST (v1.1).
as §2

[3] = system: xenograft models of human KRAS^G12C cancers; test: Xenograft / preclinical models of KRAS G12C cancers; type: in vivo
[4] = Phase 1/1b study: Compound A pharmacokinetics in patients; type: in vivo, human; conditions: for Tmax / half-life: human, oral, plasma; for Tmax: read-out: median Tmax
Description: as §1
Whole-blood samples were collected from all subjects to measure Compound A concentrations, circulating tumor deoxyribonucleic acid (ctDNA) and other biomarkers. Samples for pharmacodynamic assays collected in Cycle 1 and beyond. Paired pretreatment and on treatment fresh tumor samples collected from any subject if consent is obtained and at the discretion of the treating physician. Optional collection of pre-study treatment fresh biopsy should be performed prior to C1D1 dosing. An optional on-study treatment biopsy may be obtained with subject consent and at the discretion of the treating physician. The primary purpose of the optional on-study treatment biopsies is to assess pharmacodynamic markers and previously acquired pre-study treatment markers of resistance. Biopsy assessment with study intervention treatment over time may also help with better understanding of the shift in mutational profile with study treatment, as well as cellular clonality changes over time. Where tumor tissue allows, predictive biomarkers of response are explored.
Initially Compound A will be administered orally QD for a treatment cycle of 21 days. BID dosing be administered to subjects who are enrolled into Dose level 3 and higher dose levels during escalation as well. For subjects on BID dosing, the second dose of Compound A is administered approximately 10 to 12 hours after the first dose is administered.
as §2

KRAS^G12C CRC = test: Phase 1/1b study: tumor response per RECIST 1.1 in KRAS G12C CRC; type: in vivo, human
Description: as §1, §3, §2

[5] = 47 patients, all doses, as of Aug. 8, 2023
[6] = FIG. 3, CRC naive to KRAS^G12C(OFF) inhibitor, RECIST 1.1

Question: Which results are given for `CCn1c(-c2cccnc2[C@H](C)OC)c2c3cc(ccc31)N1CCO[C@@H](C[C@H](NC(=O)[C@H](C(C)C)N(C)C(=O)C3(F)CCN(C(=O)C#CC(C)(C)N(C)C)CC3)C(=O)N3CCC[C@H](N3)C(=O)OCC(C)(C)C2)C1` (atropisomer, axis not shown) [Compound A]?
Answer: Gr3 TRAE QTc prolongation, number of patients ([1]; 200 mg BID): 1 patients; Gr3 TRAE QTc prolongation, number of patients ([1]; 300 mg): 1 patients; Gr3 TRAE QTc prolongation, number of patients ([1]; 400 mg BID): 3 patients; TRAE QTc prolongation, patients [1, 5]: 21%; TRAE diarrhea, patients [1, 5]: 30%; TRAE fatigue, patients [1, 5]: 15%; TRAE nausea, patients [1, 5]: 34%; TRAE vomiting, patients [1, 5]: 15%; Gr3 TRAE QTc prolongation, number of patients ([1]; all doses): 5 patients; treatment-emergent AE that led to treatment discontinuation ([1]; all doses): No patients; treatment-related Gr4 or 5 AE ([1]; all doses): No patients; treatment-related ≥Gr3 hepatotoxicity ([1]; all doses): No treatment-related ≥Gr3 hepatotoxicity was observed; patients with average QTc interval >501 ms ([1]; out of the 5 patients with Gr3 QTc prolongation): one; effect on cancer cell lines in vitro [2]: growth suppression and apoptosis; confirmed PR, number of patients (KRAS^G12C NSCLC; FIG. 2, NSCLC, RECIST 1.1): 5; unconfirmed PR, number of patients (KRAS^G12C NSCLC; FIG. 2, NSCLC, RECIST 1.1): 3; disease control rate (KRAS^G12C NSCLC; NSCLC, both sets of patients (G12C(OFF) inhibitor naive and pretreated)): 100%; patients who responded (response rate) (KRAS^G12C NSCLC; NSCLC, not previously treated with G12C(OFF) inhibitor, three of seven, as of Oct. 5, 2023): 43%; patients who responded (response rate) (KRAS^G12C NSCLC; NSCLC, previously treated with G12C(OFF) inhibitor, 5 of 10, as of Oct. 5, 2023): 50%; response in preclinical models compared to adagrasib ([3]; compared to the KRAS^G12C(OFF) inhibitor adagrasib): superior response rate, deeper regressions and longer duration of response; anti-tumor activity in vivo ([3]; multiple xenograft models of human KRAS^G12C cancers): dose-dependent and durable tumor regressions; Tmax ([4]; 13 subjects, data as of May 15, 2023): 1 h; half-life ([4]; 13 subjects, data as of May 15, 2023, read-out: terminal half-life in the plasma): < 3 h; Tmax ([4]; patients, data as of Aug. 8, 2023): 1 h; half-life ([4]; patients, data as of Aug. 8, 2023, read-out: terminal half-life (converted)): 1.8 h; exposure ([4]; patients, escalating oral doses 50 mg QD to 400 mg BID): dose-dependent exposure; AUC ([4]; range of 50-200 mg): increased in a dose-dependent manner; Cmax ([4]; range of 50-200 mg): increased in a dose-dependent manner; mean accumulation ratio (C1D15 AUC vs C1D1 AUC) ([4]; repeated daily dosing): less than 2 ×; disease control rate (KRAS^G12C CRC; CRC, not previously treated with G12C(OFF) inhibitor): 80%; patients with partial response (KRAS^G12C CRC; CRC, not previously treated with G12C(OFF) inhibitor, 8 of 20, as of Oct. 5, 2023): 40%; confirmed PR, number of patients (KRAS^G12C CRC; [6]): 5; unconfirmed PR, number of patients (KRAS^G12C CRC; [6]): 3
